Reference: patent publication US12077503B2, “Substituted cyclic amides and their use as herbicides” (FMC CORPORATION, priority 2015, dated 2024)

Key:
Format in all cases: in vivo
[1] = system: wheat (Triticum aestivum); test: Test A postemergence; details: Triticum aestivum, post-emergence, 240 h, 125 g ai/ha, Postemergence; visual injury after approximately 10 d; 0 to 100 scale where 0 is no effect and 100 is complete control; read-out: Plant response rating, Wheat
In short: (§1)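 Compounds were formulated in a non-phytotoxic solvent mixture with surfactant and applied as a preemergence directed soil spray after seeding, or sprayed postemergence over plants 2 to 10 cm tall at the one- to two-leaf stage. Evaluation after about 10 d compared treated with untreated controls, using a scale from 0 (no effect) to 100 (complete control).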

[2] = system: giant foxtail (Setaria faberii); test: Test A postemergence; details: Setaria faberi, post-emergence, 240 h, 125 g ai/ha, Postemergence; visual injury after approximately 10 d; 0 to 100 scale where 0 is no effect and 100 is complete control; read-out: Plant response rating, Foxtail, Giant
In short: as §1

[3] = system: Galium (catchweed bedstraw, Galium aparine); test: Test A postemergence; details: Galium, post-emergence, 240 h, 125 g ai/ha, Postemergence; visual injury after approximately 10 d; 0 to 100 scale where 0 is no effect and 100 is complete control; read-out: Plant response rating, Galium
In short: as §1

[4] = system: barnyardgrass (Echinochloa crus-galli); test: Test A postemergence; details: Echinochloa crus-galli, post-emergence, 240 h, 125 g ai/ha, Postemergence; visual injury after approximately 10 d; 0 to 100 scale where 0 is no effect and 100 is complete control; read-out: Plant response rating, Barnyardgrass
In short: as §1

Kochia (Kochia scoparia) [5] = test: Test A postemergence; details: Bassia scoparia, post-emergence, 240 h, 125 g ai/ha, Postemergence; visual injury after approximately 10 d; 0 to 100 scale where 0 is no effect and 100 is complete control; read-out: Plant response rating, Kochia
In short: as §1

[6] = system: ragweed (common ragweed, Ambrosia elatior); test: Test A postemergence; details: Ambrosia artemisiifolia, post-emergence, 240 h, 125 g ai/ha, Postemergence; visual injury after approximately 10 d; 0 to 100 scale where 0 is no effect and 100 is complete control; read-out: Plant response rating, Ragweed
In short: as §1

[7] = system: ryegrass, Italian (Italian ryegrass, Lolium multiflorum); test: Test A postemergence; details: Lolium multiflorum, post-emergence, 240 h, 125 g ai/ha, Postemergence; visual injury after approximately 10 d; 0 to 100 scale where 0 is no effect and 100 is complete control; read-out: Plant response rating, Ryegrass, Italian
In short: as §1

[8] = system: pigweed (Amaranthus retroflexus); test: Test A postemergence; details: Amaranthus retroflexus, post-emergence, 240 h, 125 g ai/ha, Postemergence; visual injury after approximately 10 d; 0 to 100 scale where 0 is no effect and 100 is complete control; read-out: Plant response rating, Pigweed
In short: as §1

corn (Zea mays) = test: Test A postemergence; details: Zea mays, post-emergence, 240 h, 125 g ai/ha, Postemergence; visual injury after approximately 10 d; 0 to 100 scale where 0 is no effect and 100 is complete control
In short: as §1

[9] = system: blackgrass (Alopecurus myosuroides); test: Test A postemergence; details: Alopecurus myosuroides, post-emergence, 240 h, 125 g ai/ha, Postemergence; visual injury after approximately 10 d; 0 to 100 scale where 0 is no effect and 100 is complete control; read-out: Plant response rating, Blackgrass
In short: as §1

rice (Oryra sativa) = test: Test B flooded paddy test; details: Oryza sativa, Flood, 250 g ai/ha; scale of 0 to 100 where 0 is no effect and 100 is complete control; read-out: Rice plant response rating
In short: (§2)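 Greenhouse paddy pots with 2-leaf stage plants received compound by direct addition to floodwater 3 cm deep, kept at that level. Scored visually at 13–15 d versus controls (0 no effect; 100 complete control).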

[10] = system: ducksalad (Heteranthera limosa); test: Test B flooded paddy test; details: Heteranthera limosa, Flood, 250 g ai/ha; scale of 0 to 100 where 0 is no effect and 100 is complete control; read-out: Ducksalad plant response rating
In short: as §2

[11] = system: barnyardgrass (Echinochloa crus-galli); test: Test B flooded paddy test; details: Echinochloa crus-galli, Flood, 250 g ai/ha; scale of 0 to 100 where 0 is no effect and 100 is complete control; read-out: Barnyardgrass plant response rating
In short: as §2

[12] = system: sedge, umbrella (small-flower umbrella sedge, Cyperus difformis); test: Test B flooded paddy test; details: Cyperus difformis, Flood, 250 g ai/ha; scale of 0 to 100 where 0 is no effect and 100 is complete control; read-out: Sedge, Umbrella plant response rating
In short: as §2

[13] = system: giant foxtail (Setaria faberii); test: Test A preemergence; details: Setaria faberi, pre-emergence, 240 h; for pest or weed control at 125 g/ha: 125 g ai/ha, Preemergence, visual injury rating after approximately 10 d, read-out: Foxtail, Giant plant response rating (0 to 100 scale, 0 is no effect, 100 is complete control); for pest or weed control at 500 g/ha: 500 g ai/ha, preemergence, visual injury rating about 10 d after treatment, 0 to 100 scale (0 no effect, 100 complete control), read-out: Foxtail, Giant plant response rating
In short: as §1

[14] = system: barnyardgrass (Echinochloa crus-galli); test: Test A preemergence; details: Echinochloa crus-galli, pre-emergence, 240 h; for pest or weed control at 125 g/ha: 125 g ai/ha, Preemergence, visual injury rating after approximately 10 d, read-out: Barnyardgrass plant response rating (0 to 100 scale, 0 is no effect, 100 is complete control); for pest or weed control at 500 g/ha: 500 g ai/ha, preemergence, visual injury rating about 10 d after treatment, 0 to 100 scale (0 no effect, 100 complete control), read-out: Barnyardgrass plant response rating
In short: as §1

Kochia (Kochia scoparia) [15] = test: Test A preemergence; details: Bassia scoparia, pre-emergence, 240 h; for pest or weed control at 125 g/ha: 125 g ai/ha, Preemergence, visual injury rating after approximately 10 d, read-out: Kochia plant response rating (0 to 100 scale, 0 is no effect, 100 is complete control); for pest or weed control at 500 g/ha: 500 g ai/ha, preemergence, visual injury rating about 10 d after treatment, 0 to 100 scale (0 no effect, 100 complete control), read-out: Kochia plant response rating
In short: as §1

[16] = system: ragweed (common ragweed, Ambrosia elatior); test: Test A preemergence; details: Ambrosia artemisiifolia, pre-emergence, 240 h; for pest or weed control at 125 g/ha: 125 g ai/ha, Preemergence, visual injury rating after approximately 10 d, read-out: Ragweed plant response rating (0 to 100 scale, 0 is no effect, 100 is complete control); for pest or weed control at 500 g/ha: 500 g ai/ha, preemergence, visual injury rating about 10 d after treatment, 0 to 100 scale (0 no effect, 100 complete control), read-out: Ragweed plant response rating
In short: as §1

[17] = system: ryegrass, Italian (Italian ryegrass, Lolium multiflorum); test: Test A preemergence; details: Lolium multiflorum, pre-emergence, 240 h; for pest or weed control at 125 g/ha: 125 g ai/ha, Preemergence, visual injury rating after approximately 10 d, read-out: Ryegrass, Italian plant response rating (0 to 100 scale, 0 is no effect, 100 is complete control); for pest or weed control at 500 g/ha: 500 g ai/ha, preemergence, visual injury rating about 10 d after treatment, 0 to 100 scale (0 no effect, 100 complete control), read-out: Ryegrass, Italian plant response rating
In short: as §1

[18] = system: pigweed (Amaranthus retroflexus); test: Test A preemergence; details: Amaranthus retroflexus, pre-emergence, 240 h; for pest or weed control at 125 g/ha: 125 g ai/ha, Preemergence, visual injury rating after approximately 10 d, read-out: Pigweed plant response rating (0 to 100 scale, 0 is no effect, 100 is complete control); for pest or weed control at 500 g/ha: 500 g ai/ha, preemergence, visual injury rating about 10 d after treatment, 0 to 100 scale (0 no effect, 100 complete control), read-out: Pigweed plant response rating

| Compound | plant injury at 125 g/ha [1] | pest or weed control at 125 g/ha [2] | pest or weed control at 125 g/ha [3] | pest or weed control at 125 g/ha [4] | pest or weed control at 125 g/ha (Kochia (Kochia scoparia) [5]) | pest or weed control at 125 g/ha [6] | pest or weed control at 125 g/ha [7] | pest or weed control at 125 g/ha [8] | Corn plant response rating (crop injury, 0 = no effect, 100 = complete kill) at 125 g/ha (corn (Zea mays)) | pest or weed control at 125 g/ha [9] | pest or weed control at 250 g/ha (rice (Oryra sativa)) | pest or weed control at 250 g/ha [10] | pest or weed control at 250 g/ha [11] | pest or weed control at 250 g/ha [12] | pest or weed control at 125 g/ha [13] | pest or weed control at 500 g/ha [13] | pest or weed control at 125 g/ha [14] | pest or weed control at 500 g/ha [14] | pest or weed control at 125 g/ha (Kochia (Kochia scoparia) [15]) | pest or weed control at 500 g/ha (Kochia (Kochia scoparia) [15]) | also measured |
| --- | --- | --- | --- | --- | --- | --- | --- | --- | --- | --- | --- | --- | --- | --- | --- | --- | --- | --- | --- | --- | --- |
| CCOc1cccc([C@H]2CN(C)C(=O)[C@@H]2C(=O)Nc2ccc(F)cc2F)c1 [Compound 963] | 0% | 90% | 30% | 90% | 20% | 0% | 20% | 0% | 0% | 0% | 0% | 90% | 65% | 0% | 100% | 100% | 90% | 100% | 40% | 70% | pest or weed control at 125 g/ha [16]: 0%; pest or weed control at 500 g/ha [16]: 0%; pest or weed control at 125 g/ha [17]: 20%; pest or weed control at 500 g/ha [17]: 40%; pest or weed control at 125 g/ha [18]: 0%; pest or weed control at 500 g/ha [18]: 30% |
| CC(C)COc1cccc([C@H]2CNC(=O)[C@@H]2C(=O)Nc2ccccc2F)c1 [Compound 964] | 0% | 60% | 40% | 60% | 0% | 0% | 0% | 0% | 0% | 0% | 15% | 75% | 0% | 0% | 90% | 90% | 90% | 90% | 0% | 20% | pest or weed control at 125 g/ha [16]: 0%; pest or weed control at 500 g/ha [16]: 0%; pest or weed control at 125 g/ha [17]: 0%; pest or weed control at 500 g/ha [17]: 30%; pest or weed control at 125 g/ha [18]: 0%; pest or weed control at 500 g/ha [18]: 0% |
| Cc1ccc(NC(=O)[C@H]2C(=O)N(C)C[C@@H]2c2cc(F)cc(F)c2)cc1 [Compound 967] | 0% | 80% | 0% | 80% | 0% | 0% | 0% | 0% | 0% | 0% | 0% | 35% | 0% | 0% | 80% | 90% | 80% | 90% | 0% | 0% | pest or weed control at 125 g/ha [16]: 0%; pest or weed control at 500 g/ha [16]: 0%; pest or weed control at 125 g/ha [17]: 0%; pest or weed control at 500 g/ha [17]: 0%; pest or weed control at 125 g/ha [18]: 0%; pest or weed control at 500 g/ha [18]: 0% |
